From patent US12157730B2, “Heteroaryl derivative, method for producing same, and pharmaceutical composition comprising same as effective component” (VORONOI INC., priority 2019, dated 2024) come the findings set out here.

The assay has as its target T1, Ba/F3 cell EGFR Exon20 ins NPH (Homo sapiens, UniProt P00533, INS773NPH).
T1 construct: expressed in transfected cells; host or cells: Ba/F3
Nature of the assay: Ba/F3 cell proliferation suppression, EGFR Exon20 ins NPH. The assay is classed as cell-based. As to conditions: GI50 class; Ba/F3 cell line with NPH inserted at Exon20 of EGFR; 72 hours. The procedure, abridged: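 After 72 h compound exposure (twelve 3-fold steps, 0.3 nM–50 um final), live cells were measured by CellTiter-Glo luminescence and growth expressed as % of control to derive GI50. Cells were seeded at 3000–5000 per well a day earlier; Ba/F3 medium contained IL-3; three repeats.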
Consider `C=CC(=O)Nc1cc(Nc2cc(N3OCC[C@@H]3c3cccc(F)c3)ncn2)c(OC)cc1N1C[C@@H]2C[C@H]1CO2` [compound 832, N-(2-((1S,4S)-2-oxa-5-azabicyclo[2.2.1]heptane-5-yl)-5-((6-((R)-3-(3-fluorophenyl)isoxazolidine-2-yl)pyrimidine-4-yl)amino)-4-methoxyphenyl) acrylamide], for which the “Ba/F3 (NPH) Activity” value is reported as “A (GI50 < 50 nM)”.
With `C=CC(=O)Nc1cc(Nc2cc(N3OCC[C@@H]3c3ccc(F)cc3F)ncn2)c(OC)cc1N1CCC(N2CCC(N3CCOCC3)CC2)CC1` [compound 426, N-(5-((6-((R)-3-(2,4-difluorophenyl)isoxazolidine-2-yl)pyrimidine-4-yl)amino)-4-methoxy-2-(4-morpholino-[1,4'-bipiperidine]-1'-yl)phenyl)acrylamide], the “Ba/F3 (NPH) Activity” value is given as “A (GI50 < 50 nM)”.
Turning to `C=CC(=O)Nc1cc(Nc2cc(N3OCC[C@@H]3c3ccc(C)nc3)ncn2)c(OC)cc1N1C[C@@H]2C[C@H]1CO2` [Example 233, N-(2-((1S,4S)-2-oxa-5-azabicyclo[2.2.1]heptane-5-yl)-4-methoxy-5-((6-((R)-3-(6-methylpyridine-3-yl)isoxazolidine-2-yl)pyrimidine-4-yl)amino)phenyl) acrylamide], the “Ba/F3 (NPH) Activity” value was “C (500 nM ≤ GI50 < 5000 nM)”.
For `C=CC(=O)Nc1cc(Nc2cc(N3OCC[C@@H]3c3ccc(Cl)cc3F)ncn2)c(OC)cc1N1CCN(C)CC1` [compound 372, N-(5-((6-((R)-3-(4-chloro-2-fluorophenyl)isoxazolidine-2-yl)pyrimidine-4-yl)amino)-4-methoxy-2-(4-methylpiperazine-1-yl)phenyl)acrylamide], the “Ba/F3 (NPH) Activity” value was “A (GI50 < 50 nM)”.
For `C=CC(=O)Nc1cc(Nc2cc(N3OCC[C@@H]3c3cccc(Cl)c3F)ncn2)c(OC)cc1N1CCC(N2C[C@@H](C)O[C@@H](C)C2)CC1` [compound 706, N-(5-((6-((R)-3-(3-chloro-2-fluorophenyl)isoxazolidine-2-yl)pyrimidine-4-yl)amino)-2-(4-((2S,6R)-2,6-dimethylmorpholino)piperidine-1-yl)-4-methoxyphenyl) acrylamide], the “Ba/F3 (NPH) Activity” value is on record as “A (GI50 < 50 nM)”.
For the compound `C=CC(=O)Nc1cc(Nc2cc(N3OCC[C@@H]3c3cc(F)cc(F)c3)ncn2)c(OC)cc1N1CCC(N2CCN(C)C[C@@H]2C)CC1` [compound 762, N-(5-((6-((R)-3-(3,5-difluorophenyl)isoxazolidine-2-yl)pyrimidine-4-yl)amino)-2-(4-((S)-2,4-dimethylpiperazine-1-yl)piperidine-1-yl)-4-methoxyphenyl) acrylamide], the “Ba/F3 (NPH) Activity” value is given as “A (GI50 < 50 nM)”.
Under `C=CC(=O)Nc1cc(Nc2cc(N3OCC[C@@H]3c3cccc(Cl)c3)ncn2)c(OC)cc1N(C)CCN(C)C` [compound 359, N-(5-((6-((R)-3-(3-chlorophenyl)isoxazolidine-2-yl)pyrimidine-4-yl)amino)-2-((2-(dimethylamino)ethyl)(methyl)amino)-4-methoxyphenyl) acrylamide] stands “A (GI50 < 50 nM)”; under `C=CC(=O)Nc1cc(Nc2cc(N3OCC[C@@H]3c3cccc(Cl)c3C)ncn2)c(OC)cc1N1CCC(N2CCN(C3CC3)CC2)CC1` [Example 145, N-(5-((6-((R)-3-(3-chloro-2-methylphenyl)isoxazolidine-2-yl)pyrimidine-4-yl)amino)-2-(4-(4-cyclopropylpiperazine-1-yl)piperidine-1-yl)-4-methoxyphenyl) acrylamide], “A (GI50 < 50 nM)”.
For `C=CC(=O)Nc1cc(Nc2cc(N3OCC[C@@H]3c3ccc(F)cc3F)ncn2)c(OC)cc1N1CCN(CC)CC1` [compound 351, N-(5-((6-((R)-3-(2,4-difluorophenyl)isoxazolidine-2-yl)pyrimidine-4-yl)amino)-2-(4-ethylpiperazine-1-yl)-4-methoxyphenyl) acrylamide], the “Ba/F3 (NPH) Activity” value is “A (GI50 < 50 nM)”.
`C=CC(=O)Nc1cc(Nc2cc(N3OCC[C@@H]3c3cccc(F)c3F)ncn2)c(OC)cc1N1CCN(C)[C@@H](C)C1` [compound 883, N-(5-((6-((R)-3-(2,3-difluorophenyl)isoxazolidine-2-yl)pyrimidine-4-yl)amino)-2-((S)-3,4-dimethylpiperazine-1-yl)-4-methoxyphenyl) acrylamide]: the “Ba/F3 (NPH) Activity” value was “A (GI50 < 50 nM)”.
In the case of `C=CC(=O)Nc1cc(Nc2cc(N3OCC[C@@H]3Cc3cccc(N(C)C)c3)ncn2)c(OC)cc1N1CCN(C2CC2)CC1` [compound 1043, N-(2-(4-cyclopropylpiperazine-1-yl)-5-((6-((S)-3-(3-(dimethylamino)benyl)isoxazolidine-2-yl)prymidine-4-yl)amino)-4-methoxyphenyl) acrylamide], the “Ba/F3 (NPH) Activity” value is on record as “C (500 nM ≤ GI50 < 5000 nM)”.
As for `C=CC(=O)Nc1cc(Nc2cc(N3OCC[C@@H]3c3ccc(F)c(Cl)c3F)ncn2)c(OC)cc1N1CCC(N2CCN(C(C)C)CC2)CC1` [compound 668, N-(5-((6-((R)-3-(3-chloro-2,4-difluorophenyl)isoxazolidine-2-yl)pyrimidine-4-yl)amino)-2-(4-(4-isopropylpiperazine-1-yl)piperidine-1-yl)-4-methoxyphenyl) acrylamide], the “Ba/F3 (NPH) Activity” value is listed as “B (50 nM ≤ GI50 < 500 nM)”.
Consider `C=CC(=O)Nc1cc(Nc2cc(N3OCC[C@@H]3c3ccc(F)c(F)c3)ncn2)c(OC)cc1N1CCC(N2CCN(CCC)CC2)CC1` [compound 547, N-(5-((6-((R)-3-(3,4-difluorophenyl)isoxazolidine-2-yl)pyrimidine-4-yl)amino)-4-methoxy-2-(4-(4-propylpiperazine-1-yl)piperidine-1-yl)phenyl) acrylamide], for which the “Ba/F3 (NPH) Activity” value was “A (GI50 < 50 nM)”.
With `C=CC(=O)Nc1cc(Nc2cc(N3OCC[C@@H]3c3cccc(F)c3F)ncn2)c(OC)cc1N1CCN(C)C[C@@H]1C` [compound 886, N-(5-((6-((R)-3-(2,3-difluorophenyl)isoxazolidine-2-yl)pyrimidine-4-yl)amino)-2-((S)-2,4-dimethylpiperazine-1-yl)-4-methoxyphenyl) acrylamide], the “Ba/F3 (NPH) Activity” value is “A (GI50 < 50 nM)”.
Take `C=CC(=O)Nc1cc(Nc2cc(N3OCC[C@@H]3c3ccc(Cl)c(Cl)c3)ncn2)c(OC)cc1N1CCC(N2CCN(C)CC2)CC1` [compound 681]: the “Ba/F3 (NPH) Activity” value is given as “A (GI50 < 50 nM)”.
In the case of `C=CC(=O)Nc1cc(Nc2cc(N3OCC[C@@H]3c3cc(F)cc(F)c3)ncn2)c(OC)cc1N1CCC(N2C[C@H](C)N(C3CC3)C[C@H]2C)CC1` [Example 107, N-(2-(4-((2R,5S)-4-cyclopropyl-2,5-dimethylpiperazine-1-yl)piperidine-1-yl)-5-((6-((R)-3-(3,5-difluorophenyl)isoxazolidine-2-yl)pyrimidine-4-yl)amino)-4-methoxyphenyl) acrylamide], the “Ba/F3 (NPH) Activity” value is given as “A (GI50 < 50 nM)”.
In the case of `C#Cc1cccc([C@H]2CCON2c2cc(Nc3cc(NC(=O)C=C)c(N4CCC(N5C[C@@H](C)O[C@@H](C)C5)CC4)cc3OC)ncn2)c1` [compound 651, N-(2-(4-((2S,6R)-2,6-dimethylmorpholino)piperidine-1-yl)-5-((6-((R)-3-(3-ethynylphenyl)isoxazolidine-2-yl)pyrimidine-4-yl)amino)-4-methoxyphenyl) acrylamide], the “Ba/F3 (NPH) Activity” value was “A (GI50 < 50 nM)”.
On to `C=CC(=O)Nc1cc(Nc2cc(N3OCC[C@@H]3c3c(F)cccc3F)ncn2)c(OC)cc1N1CCC(N2CCN(C3CC3)[C@H](C)C2)CC1` [Example 137, N-(2-(4-((R)-4-cyclopropyl-3-methylpiperazine-1-yl)piperidine-1-yl)-5-((6-((R)-3-(2,6-difluorophenyl)isoxazolidine-2-yl)pyrimidine-4-yl)amino)-4-methoxyphenyl) acrylamide], for which the “Ba/F3 (NPH) Activity” value is given as “B (50 nM ≤ GI50 < 500 nM)”.
For the compound `C=CC(=O)Nc1cc(Nc2cc(N3OCC[C@@H]3c3ccc(F)c(Cl)c3F)ncn2)c(OC)cc1N1CCC(N2CCN(C3CCC3)CC2)CC1` [Example 193, N-(5-((6-((R)-3-(3-chloro-2,4-difluorophenyl)isoxazolidine-2-yl)pyrimidine-4-yl)amino)-2-(4-(4-cyclobutylpiperazine-1-yl)piperidine-1-yl)-4-methoxyphenyl) acrylamide], the “Ba/F3 (NPH) Activity” value is reported as “A (GI50 < 50 nM)”.
Consider `C=CC(=O)Nc1cc(Nc2cc(N3OCC[C@@H]3c3cccc(Cl)c3Cl)ncn2)c(OC)cc1N1CCC(N2CCN(C3CCOCC3)CC2)CC1` [Example 208, N-(5-((6-((R)-3-(2,3-dichlorophenyl)isoxazolidine-2-yl)pyrimidine-4-yl)amino)-4-methoxy-2-(4-(4-(tetrahydro-2H-pyran-4-yl)piperazine-1-yl)piperidine-1-yl)phenyl)acrylamide], for which the “Ba/F3 (NPH) Activity” value is on record as “A (GI50 < 50 nM)”.
In the case of `C=CC(=O)Nc1cc(Nc2cc(N3OCC[C@@H]3c3cccs3)ncn2)c(OC)cc1N1CCC(N2CCN(C3CC3)CC2)CC1` [Example 147, N-(2-(4-(4-cyclopropylpiperazine-1-yl)piperidine-1-yl)-4-methoxy-5-((6-((R)-3-(thiophene-2-yl)isoxazolidine-2-yl)pyrimidine-4-yl)amino)phenyl)acrylamide], the “Ba/F3 (NPH) Activity” value is “A (GI50 < 50 nM)”.
As to `C=CC(=O)Nc1cc(Nc2cc(N3OCC[C@@H]3c3cccc(F)c3Cl)ncn2)c(OC)cc1N(C)CCN(C)C` [compound 551, N-(5-((6-((R)-3-(2-chloro-3-fluorophenyl)isoxazolidine-2-yl)pyrimidine-4-yl)amino)-2-((2-(dimethylamino)ethyl)(methyl)amino)-4-methoxyphenyl) acrylamide], the “Ba/F3 (NPH) Activity” value is “A (GI50 < 50 nM)”.
For the compound `C=CC(=O)Nc1cc(Nc2cc(N3OCC[C@@H]3c3cccc(F)c3Cl)ncn2)c(OC)cc1N1CCC(N2CCN(CC)CC2)CC1` [compound 602, N-(5-((6-((R)-3-(2-chloro-3-fluorophenyl)isoxazolidine-2-yl)pyrimidine-4-yl)amino)-2-(4-(4-thylpiperazine-1-yl)piperidine-1-yl)-4-methoxyphenyl) acrylamide], the “Ba/F3 (NPH) Activity” value is listed as “A (GI50 < 50 nM)”.
